# Activity calls are given as the source filed them. No cut-off for these calls is given here.
# Assays:
# Mus musculus [1] = experiment: Antiinflammatory activity in cerulein-induced CD-1 mouse assessed as reduction of edema at 10 mg/kg, ip administered on 0.5 and 2.5 hrs post first cerulein administration measured after 6 hrs by Hematoxylin and eosin staining based analysis; type: functional, organism-based
# Mus musculus [2] = experiment: Antiinflammatory activity in cerulein-induced CD-1 mouse assessed as reduction in serum ALT at 10 mg/kg, ip administered on 0.5 and 2.5 hrs post first cerulein administration measured after 6 hrs by Hematoxylin and eosin staining based analysis; type: functional, organism-based
# Mus musculus [3] = experiment: Antiinflammatory activity in cerulein-induced CD-1 mouse assessed as reduction in serum AST at 10 mg/kg, ip administered on 0.5 and 2.5 hrs post first cerulein administration measured after 6 hrs by Hematoxylin and eosin staining based analysis; type: functional, organism-based
# [4] = target: T1, Prostaglandin G/H synthase 2 (Mus musculus, UniProt Q05769); experiment: Inhibition of COX-2 in LPS-stimulated mouse J774 cells assessed as inhibition of PGE2 production pretreated for 2 hrs followed by stimulation with LPS measured after 24 hrs by ELISA analysis; type: cell-based
# T1 sequence (Q05769 whole entry): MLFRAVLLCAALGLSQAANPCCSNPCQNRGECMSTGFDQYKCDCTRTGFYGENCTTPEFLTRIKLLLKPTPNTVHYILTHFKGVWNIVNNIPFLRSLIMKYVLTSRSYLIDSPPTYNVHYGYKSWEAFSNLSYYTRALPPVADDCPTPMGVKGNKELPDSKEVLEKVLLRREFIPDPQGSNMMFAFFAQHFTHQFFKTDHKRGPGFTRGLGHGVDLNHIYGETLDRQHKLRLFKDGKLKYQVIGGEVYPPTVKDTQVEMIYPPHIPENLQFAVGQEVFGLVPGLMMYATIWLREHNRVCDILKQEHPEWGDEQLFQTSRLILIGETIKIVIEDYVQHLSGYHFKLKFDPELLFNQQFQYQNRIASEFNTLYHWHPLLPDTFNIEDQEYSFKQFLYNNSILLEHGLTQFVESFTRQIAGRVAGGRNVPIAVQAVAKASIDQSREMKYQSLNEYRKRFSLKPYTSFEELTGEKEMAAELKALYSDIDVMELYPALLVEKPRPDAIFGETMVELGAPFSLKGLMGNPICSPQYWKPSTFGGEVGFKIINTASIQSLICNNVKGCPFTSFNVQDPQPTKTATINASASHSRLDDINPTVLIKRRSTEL
# Mus musculus [5] = experiment: Antiinflammatory activity in cerulein-induced CD-1 mouse assessed as reduction of neutrophil numbers at 10 mg/kg, ip administered on 0.5 and 2.5 hrs post first cerulein administration measured after 6 hrs by Hematoxylin and eosin staining based analysis; type: functional, organism-based
# Mus musculus [6] = experiment: Antiinflammatory activity in cerulein-induced CD-1 mouse assessed as reduction of cell infiltration at 10 mg/kg, ip administered on 0.5 and 2.5 hrs post first cerulein administration measured after 6 hrs by Hematoxylin and eosin staining based analysis; type: functional, organism-based
# Mus musculus [7] = experiment: Antiinflammatory activity in cerulein-induced CD-1 mouse assessed as reduction in lung inflammation at 10 mg/kg, ip administered on 0.5 and 2.5 hrs post first cerulein administration measured after 6 hrs by Hematoxylin and eosin staining based analysis; type: functional, organism-based
# Mus musculus [8] = experiment: Antiinflammatory activity in cerulein-induced CD-1 mouse assessed as reduction in lung neutrophilia at 10 mg/kg, ip administered on 0.5 and 2.5 hrs post first cerulein administration measured after 6 hrs by Hematoxylin and eosin staining based analysis; type: functional, organism-based
# Mus musculus [9] = experiment: Antiinflammatory activity in cerulein-induced CD-1 mouse assessed as reduction in pancreatic injury at 10 mg/kg, ip administered on 0.5 and 2.5 hrs post first cerulein administration measured after 6 hrs by Hematoxylin and eosin staining based analysis; type: functional, organism-based
Compound,Activity (Mus musculus [1]),Activity (Mus musculus [2]),Activity (Mus musculus [3]),IC50 [4] [µM],Activity (Mus musculus [5]),Activity (Mus musculus [6]),Activity (Mus musculus [7]),Activity (Mus musculus [8]),Activity (Mus musculus [9])
CC(C)c1ccc(Cn2ccc3cc(NC(=O)NCC45C[C@H]6C[C@@H](C4)C[C@@H](C5)C6)ccc32)cc1,Active,Active,Active,> 10,Active,Active,Active,Active,–
O=C(O)CCCCCCCCCCCNC(=O)NC12CC3CC(CC(C3)C1)C2,–,–,–,–,–,–,–,–,Active

# From ChEMBL document CHEMBL5331115, “Design, Synthesis, and Pharmacological Characterization of a Potent Soluble Epoxide Hydrolase Inhibitor for the Treatment of Acute Pancreatitis” (J Med Chem, 2023)
